Assay results: US20230271980A1, “PREPARATION AND APPLICATION OF TRICYCLIC PYRIMIDINONE COMPOUND AND ITS COMPOSITION” (NEUSCO BIOTECH LIMITED, priority 2020, published 2023)

Legend:
[1] = target: T1, Lp-PLA2 enzyme in human plasma (Homo sapiens, UniProt Q13093); assay: Human plasma Lp-PLA2 assay (Thio-PAF assay); format: biochemical; conditions: mixed human plasma; 2-thio-PAF substrate with CPM; 30 min pre-incubation; fluorescence ex 380/em 485; read-out: Thio-PAF (pIC50) (converted)
T1 construct: from tissue; host or cells: pooled (mixed) human plasma
T1 sequence (Q13093 22-441): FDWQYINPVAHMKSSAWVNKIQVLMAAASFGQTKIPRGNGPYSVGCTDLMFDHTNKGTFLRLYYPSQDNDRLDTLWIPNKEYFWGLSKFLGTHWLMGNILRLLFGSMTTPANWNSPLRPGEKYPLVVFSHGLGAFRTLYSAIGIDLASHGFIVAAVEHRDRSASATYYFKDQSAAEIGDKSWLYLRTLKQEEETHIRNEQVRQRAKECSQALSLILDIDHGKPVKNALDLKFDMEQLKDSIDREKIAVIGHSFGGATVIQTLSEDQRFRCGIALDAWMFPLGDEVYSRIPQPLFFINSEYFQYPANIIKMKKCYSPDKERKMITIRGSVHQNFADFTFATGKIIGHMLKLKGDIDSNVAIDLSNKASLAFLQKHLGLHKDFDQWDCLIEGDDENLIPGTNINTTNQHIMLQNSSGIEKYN
Experimental: (2) Human Plasma Lp-PLA2 Assay (Also Known as Thio-PAF Assay)
The human plasma assay was conducted using the sulphatide analog of PAF (phosphatidylcholine), which is hydrolyzed to produce phospholipids containing free sulfhydryl groups, subjected to Michael addition with CPM to generate fluorescence-enhancing maleimide.
Continuous quantitative analysis of thiol could be conducted by detecting the fluorescence intensity. This assay can be used to detect the inhibitory activity of the Lp-PLA2 inhibitor on the Lp-PLA2 enzyme in human plasma.
Assay Method: The compound to be tested (as shown in Table 2) was mixed with a DMSO solution in a volume ratio of (1:3), and diluted to prepare a source plate of a 384-well microplate. Then 0.01 μl of the compound was transferred via an ECHO liquid dispenser from the source plate to a 384-well Greiner 784076 low-volume plate, and 8 μl of pre-aliquoted and frozen mixed human plasma was added. The plate was centrifuged at 500 rpm for 10 seconds. After a 30 min pre-incubation, 2 μl of a substrate solution, and containing 2.5 mM 2-thio-PAF (a solution in ethanol), 32 μM CPM (a solution in DMSO) and a buffer of 3.2 mM N-ethylmaleimide (NEM) (a buffer solution consisting of 50 mM HEPES, pH7.4, 150 mM NaCl, 1 mM CHAPS) was added by a BRAVO liquid handling station to a 384-well Greiner 784076 low-volume plate. After 2 min, the reaction was quenched with 5 μl of 5% trifluoroacetic acid. After the plate was incubated at room temperature for 40 min in a dark place, the fluorescence intensity was read at ex 380/em 485 with an Envision microplate reader, and the XL fitting model in Excel was used to perform the curve analysis and QC analysis to calculate pIC50.

[2] = target: T2, Recombinant human Lp-PLA2 (Homo sapiens, UniProt Q13093); assay: Recombinant human Lp-PLA2 (rhLp-PLA2) assay (PED6 assay); format: biochemical; conditions: PED6 substrate; recombinant human Lp-PLA2 enzyme at 4 nM or 110 pM; 30 min pre-incubation; fluorescence ex 480/em 540; read-out: rhLp-PLA2 (pIC50) (converted)
T2 sequence (Q13093 22-441): T1 sequence (Q13093 22-441)
From the text: (1) Recombinant Human Lp-PLA2 (rhLp-PLA2) Assay (Also Known as PED6 Assay)
PED6 is a fluorescently labeled phospholipid that can be purchased directly from Invitogene or Molecular Probes. There is a fluorescence-quenching p-nitrophenyl group on the Sn3 position, and a Bodipy fluorescein (FL) group on the sn2 position. Once it is cleaved by the Lp-PLA2 enzyme, the FL group is released, resulting in enhanced fluorescence.
Assay method: The compound to be tested (as shown in Table 1) was mixed with DMSO solution at a volume ratio of 1:3, diluted to prepare a source plate of a 384-well microplate. Then 0.01 μl of the compound was transferred via an ECHO liquid dispenser from the source plate to a 384-well Greiner 784076 plate, and 5 microliters of a buffer composed of 50 mM HEPES, pH7.4, 150 mM NaCl, 1 mM CHAPS (the buffer solution contains Recombinant human Lp-PLA2 enzyme at a concentration of 4 nM or 110 pM) was added to each well on the plate. The plate was centrifuged at 500 rpm for 10 seconds. After 30 minutes of pre-incubation, 5 microliters of the above buffer solution was added to a 384-well Greiner784076 plate, and the plate was centrifuged at 500 rpm for 10 seconds.

| IC50 [1] | IC50 [2] | Structure (SMILES) |
| --- | --- | --- |
| 12.6 nM | 0.126 nM | O=c1nc(OCc2cc(F)c(Oc3ccnc(C(F)(F)F)c3)c(F)c2)c2c3n1CCN3CCO2 [Compound 4] |
| 39.8 nM | 1 nM | Cc1ncc(Oc2c(F)cc(COc3nc(=O)n4c5c3OCCN5CC4)cc2F)cn1 [Compound 8] |
| 63.1 nM | 3.98 nM | O=c1nc(OCc2cc(F)c(F)c(F)c2)c2c3n1CCCN3CCO2 [Compound 19] |
| 50.1 nM | 3.16 nM | O=c1nc(OCc2cc(F)c(F)c(F)c2)c2c3n1CCN3CCO2 [Compound 3] |
| 15.8 nM | 0.0794 nM | O=c1nc(OCc2cc(F)c(Oc3ccc(OC(F)(F)F)c(Cl)c3)c(F)c2)c2c3n1CCN3CCO2 [Compound 12] |
| 10 nM | 0.158 nM | O=c1nc(OCc2cc(F)c(Oc3ccc(C(F)(F)F)cc3)c(F)c2)c2c3n1CCN3CCO2 [Compound 9] |
| 15.8 nM | 0.158 nM | Cc1cc(Oc2c(F)cc(COc3nc(=O)n4c5c3OCCN5CC4)cc2F)ccn1 [Compound 6] |
| 7.94 nM | 0.0501 nM | Cc1ccc(Oc2c(F)cc(COc3nc(=O)n4c5c3OCCN5CCC4)cc2F)cn1 [Compound 17] |
| 7.94 nM | 0.0631 nM | O=c1nc(OCc2cc(F)c(Oc3ccnc(C(F)(F)F)c3)c(F)c2)c2c3n1CCCN3CCO2 [Compound 15] |
| 10 nM | 0.0794 nM | O=c1nc(OCc2cc(F)c(Oc3ccc(C(F)(F)F)nc3)c(F)c2)c2c3n1CCCN3CCO2 [Compound 16] |
| 10 nM | 0.1 nM | O=c1nc(OCc2cc(F)c(Oc3ccc(C(F)(F)F)c(Cl)c3)c(F)c2)c2c3n1CCN3CCO2 [Compound 11] |
| 126 nM | 10 nM | O=c1nc(OCc2cccc(F)c2F)c2c3n1CCCN3CCO2 [Compound 18] |
| 15.8 nM | 0.2 nM | O=c1nc(OCc2cc(F)c(Oc3cccc(OC(F)(F)F)c3)c(F)c2)c2c3n1CCN3CCO2 [Compound 10] |
| 316 nM | 15.8 nM | O=c1nc(OCc2cc(F)c(F)cc2F)c2c3n1CCN3CCO2 [Compound 1] |
| 20 nM | 0.2 nM | O=c1nc(OCc2cc(F)c(Oc3ccc(C(F)(F)F)nc3)c(F)c2)c2c3n1CCN3CCO2 [Compound 5] |
| 15.8 nM | 0.2 nM | Cc1cc(Oc2c(F)cc(COc3nc(=O)n4c5c3OCCN5CC4)cc2F)ccc1Cl [Compound 14] |
| 12.6 nM | 0.158 nM | O=c1nc(OCc2cc(F)c(Oc3ccc(Cl)c(C(F)(F)F)c3)c(F)c2)c2c3n1CCN3CCO2 [Compound 13] |
| 20 nM | 0.251 nM | Cc1ccc(Oc2c(F)cc(COc3nc(=O)n4c5c3OCCN5CC4)cc2F)cn1 [Compound 7] |
| 158 nM | 10 nM | O=c1nc(OCc2cccc(F)c2F)c2c3n1CCN3CCO2 [Compound 2] |
